Results reported in patent US4115541A (priority 1975, dated 1978).
Where two headings read alike, the source gives them in different places.

Tests used:
[1] = rabbits, 2 Hrs.
[2] = Localization in callous of three week-old tibial fractures in rabbits (Example 2); type: in vivo, albino rabbit; settings: rabbits i.v.
Method: Adult New Zealand albino rabbits having an average weight of 3.8 kg were utilized. Strontium-85 was employed as a standard for comparison. […] Each dosage is contained in a volume of 1 ml.
The animals were sacrificed serially from 1 to 24 hours after injection and the activities in major organs were determined by counting multiple samples from each organ in a scintillation well counter (the technetium-99m counts were corrected for the Compton contributions from the strontium-85 activity in the technetium-99m energy window). Multiple samples were counted from the tibia, femur, spine and pelvic bones; the total activity in the skeleton was estimated by assuming the whole skeleton consisted of equal proportions by weight of tibia, spine, femur and pelvis and that the skeletal mass was 10% of the body weight. […] The whole liver and both kidneys were weighed and multiple samples from each were counted to measure the total activity in each organ.
In another series of experiments carried out as described above, localization of technetium from its tin-phosphonate complex was determined in the callous of three week-old fractures of tibia in albino rabbits, again in comparison with strontium-85. Comparative radioassay of technetium-99m administered as the pertechnetate was measured in the callous of tibial fractures in rabbits at one and four hours after administration.

[3] = for Blood, % dose/1% body weight / Bone(Avg), % dose/1% body weight / Femur, % dose/1% body weight / Kidneys, % Dose in Whole Organ / Kidneys, % dose/1% body weight / Liver, % Dose in Whole Organ / Liver, % dose/1% body weight / Marrow, % Dose in Whole Organ / Marrow, % dose/1% body weight / Muscle, % dose/1% body weight / One femur, % dose in whole organ / Pelvis, % dose/1% body weight / Spine, % dose/1% body weight / Tibia, % dose/1% body weight / Blood, % Dose in Whole Organ: rabbits i.v., ~1 mg/kg EHDP

Substance: tin-1-hydroxy-ethane-1,1-diphosphonate [^99m Tc-EHDP]
- Blood, % Dose in Whole Organ ([1]; EHDP 0.01 mg/kg): 0.99 % Dose
- Blood, % Dose/1%-body weight ([1]; EHDP 0.01 mg/kg): 0.142 % Dose/1%-body weight
- Femur, % Dose/1%-body weight ([1]; EHDP 0.01 mg/kg): 7.49 % Dose/1%-body weight
- Kidney, % Dose/1%-body weight ([1]; EHDP 0.01 mg/kg): 1.55 % Dose/1%-body weight
- Kidneys, % Dose in Whole Organ ([1]; EHDP 0.01 mg/kg): 0.81 % Dose
- Liver, % Dose in Whole Organ ([1]; EHDP 0.01 mg/kg): 0.53 % Dose
- Liver, % Dose/1%-body weight ([1]; EHDP 0.01 mg/kg): 0.154 % Dose/1%-body weight
- Marrow, % Dose in Whole Organ ([1]; EHDP 0.01 mg/kg): 0.34 % Dose
- Marrow, % Dose/1%-body weight ([1]; EHDP 0.01 mg/kg): 0.152 % Dose/1%-body weight
- Muscle, % Dose in Whole Organ ([1]; EHDP 0.01 mg/kg): 0.78 % Dose
- One femur, % dose in whole organ ([1]; EHDP 0.01 mg/kg): 2.20 % Dose
- Tibia, % Dose/1%-body weight ([1]; EHDP 0.01 mg/kg): 8.22 % Dose/1%-body weight
- Blood, % Dose/1%-body weight ([1]; EHDP 0.05 mg/kg): 0.193 % Dose/1%-body weight
- Femur, % Dose/1%-body weight ([1]; EHDP 0.05 mg/kg): 8.38 % Dose/1%-body weight
- Kidney, % Dose/1%-body weight ([1]; EHDP 0.05 mg/kg): 3.83 % Dose/1%-body weight
- Kidneys, % Dose in Whole Organ ([1]; EHDP 0.05 mg/kg): 2.9 % Dose
- Liver, % Dose/1%-body weight ([1]; EHDP 0.05 mg/kg): 0.432 % Dose/1%-body weight
- Marrow, % Dose in Whole Organ ([1]; EHDP 0.05 mg/kg): 0.78 % Dose
- Marrow, % Dose/1%-body weight ([1]; EHDP 0.05 mg/kg): 0.353 % Dose/1%-body weight
- Tibia, % Dose/1%-body weight ([1]; EHDP 0.05 mg/kg): 8.68 % Dose/1%-body weight
- Blood, % Dose/1%-body weight ([1]; EHDP 0.1 mg/kg): 0.146 % Dose/1%-body weight
- Femur, % Dose/1%-body weight ([1]; EHDP 0.1 mg/kg): 8.97 % Dose/1%-body weight
- Kidney, % Dose/1%-body weight ([1]; EHDP 0.1 mg/kg): 1.09 % Dose/1%-body weight
- Kidneys, % Dose in Whole Organ ([1]; EHDP 0.1 mg/kg): 0.63 % Dose
- Liver, % Dose in Whole Organ ([1]; EHDP 0.1 mg/kg): 0.19 % Dose
- Liver, % Dose/1%-body weight ([1]; EHDP 0.1 mg/kg): 0.068 % Dose/1%-body weight
- Marrow, % Dose in Whole Organ ([1]; EHDP 0.1 mg/kg): 0.20 % Dose
- Marrow, % Dose/1%-body weight ([1]; EHDP 0.1 mg/kg): 0.093 % Dose/1%-body weight
- Muscle, % Dose in Whole Organ ([1]; EHDP 0.1 mg/kg): 0.98 % Dose
- Tibia, % Dose/1%-body weight ([1]; EHDP 0.1 mg/kg): 9.63 % Dose/1%-body weight
- Blood, % Dose/1%-body weight ([1]; EHDP 0.5 mg/kg): 0.215 % Dose/1%-body weight
- Kidney, % Dose/1%-body weight ([1]; EHDP 0.5 mg/kg): 2.23 % Dose/1%-body weight
- Kidneys, % Dose in Whole Organ ([1]; EHDP 0.5 mg/kg): 1.10 % Dose
- Liver, % Dose in Whole Organ ([1]; EHDP 0.5 mg/kg): 0.260 % Dose
- Liver, % Dose/1%-body weight ([1]; EHDP 0.5 mg/kg): 0.086 % Dose/1%-body weight
- Marrow, % Dose in Whole Organ ([1]; EHDP 0.5 mg/kg): 0.19 % Dose
- Marrow, % Dose/1%-body weight ([1]; EHDP 0.5 mg/kg): 0.088 % Dose/1%-body weight
- Callus, % dose/1% body weight ([2]; 1 Hr.): 24.7 % dose/1% body weight
- Callus, % dose/1% body weight ([2]; 4 Hrs): 28.9 % dose/1% body weight
- skeletal concentrations compared with 85Sr ([3]; at various times): similar
- soft tissue and blood concentrations compared with 85Sr ([3]; at various times): much lower than those for 85Sr
- Blood, % dose/1% body weight ([3]; 1 Hr.): 1.23 % dose/1% body weight
- Bone(Avg), % dose/1% body weight ([3]; 1 Hr.): 4.66 % dose/1% body weight
- Femur, % dose/1% body weight ([3]; 1 Hr.): 3.85 % dose/1% body weight
- Kidneys, % Dose in Whole Organ ([3]; 1 Hr.): 2.40 % dose
- Kidneys, % dose/1% body weight ([3]; 1 Hr.): 3.93 % dose/1% body weight
- Liver, % Dose in Whole Organ ([3]; 1 Hr.): 0.80 % dose
- Liver, % dose/1% body weight ([3]; 1 Hr.): 0.30 % dose/1% body weight
- Marrow, % Dose in Whole Organ ([3]; 1 Hr.): 0.70 % dose
- Marrow, % dose/1% body weight ([3]; 1 Hr.): 0.36 % dose/1% body weight
- Muscle, % dose/1% body weight ([3]; 1 Hr.): 0.15 % dose/1% body weight
- One femur, % dose in whole organ ([3]; 1 Hr.): 0.82 % dose
- Pelvis, % dose/1% body weight ([3]; 1 Hr.): 7.15 % dose/1% body weight
- Spine, % dose/1% body weight ([3]; 1 Hr.): 5.87 % dose/1% body weight
- Tibia, % dose/1% body weight ([3]; 1 Hr.): 2.17 % dose/1% body weight
- Blood, % dose/1% body weight ([3]; 2 Hrs): 0.37 % dose/1% body weight
- Bone(Avg), % dose/1% body weight ([3]; 2 Hrs): 4.82 % dose/1% body weight
- Femur, % dose/1% body weight ([3]; 2 Hrs): 3.94 % dose/1% body weight
- Kidneys, % dose/1% body weight ([3]; 2 Hrs): 2.72 % dose/1% body weight
- Liver, % Dose in Whole Organ ([3]; 2 Hrs): 0.42 % dose
- Liver, % dose/1% body weight ([3]; 2 Hrs): 0.18 % dose/1% body weight
- Marrow, % Dose in Whole Organ ([3]; 2 Hrs): 0.38 % dose
- Marrow, % dose/1% body weight ([3]; 2 Hrs): 0.17 % dose/1% body weight
- Muscle, % dose/1% body weight ([3]; 2 Hrs): 0.04 % dose/1% body weight
- One femur, % dose in whole organ ([3]; 2 Hrs): 0.84 % dose
- Pelvis, % dose/1% body weight ([3]; 2 Hrs): 7.40 % dose/1% body weight
- Spine, % dose/1% body weight ([3]; 2 Hrs): 5.44 % dose/1% body weight
- Tibia, % dose/1% body weight ([3]; 2 Hrs): 2.49 % dose/1% body weight
- Blood, % Dose in Whole Organ ([3]; 4 Hrs): 0.89 % dose
- Bone(Avg), % dose/1% body weight ([3]; 4 Hrs): 4.74 % dose/1% body weight
- Femur, % dose/1% body weight ([3]; 4 Hrs): 3.86 % dose/1% body weight
- Kidneys, % Dose in Whole Organ ([3]; 4 Hrs): 0.94 % dose
- Kidneys, % dose/1% body weight ([3]; 4 Hrs): 1.95 % dose/1% body weight
- Liver, % Dose in Whole Organ ([3]; 4 Hrs): 0.28 % dose
- Marrow, % Dose in Whole Organ ([3]; 4 Hrs): 0.83 % dose
- Marrow, % dose/1% body weight ([3]; 4 Hrs): 0.38 % dose/1% body weight
- One femur, % dose in whole organ ([3]; 4 Hrs): 0.81 % dose
- Pelvis, % dose/1% body weight ([3]; 4 Hrs): 7.41 % dose/1% body weight
- Spine, % dose/1% body weight ([3]; 4 Hrs): 5.52 % dose/1% body weight
- Tibia, % dose/1% body weight ([3]; 4 Hrs): 2.16 % dose/1% body weight
- Blood, % Dose in Whole Organ ([3]; 24 Hrs): 0.49 % dose
- Blood, % dose/1% body weight ([3]; 24 Hrs): 0.07 % dose/1% body weight
- Bone(Avg), % dose/1% body weight ([3]; 24 Hrs): 4.14 % dose/1% body weight
- Femur, % dose/1% body weight ([3]; 24 Hrs): 3.42 % dose/1% body weight
- Kidneys, % Dose in Whole Organ ([3]; 24 Hrs): 0.63 % dose
- Kidneys, % dose/1% body weight ([3]; 24 Hrs): 1.29 % dose/1% body weight
- Liver, % Dose in Whole Organ ([3]; 24 Hrs): 0.43 % dose
- Liver, % dose/1% body weight ([3]; 24 Hrs): 0.28 % dose/1% body weight
- Marrow, % Dose in Whole Organ ([3]; 24 Hrs): 0.42 % dose
- Marrow, % dose/1% body weight ([3]; 24 Hrs): 0.19 % dose/1% body weight
- One femur, % dose in whole organ ([3]; 24 Hrs): 0.76 % dose
- Pelvis, % dose/1% body weight ([3]; 24 Hrs): 5.70 % dose/1% body weight
- Spine, % dose/1% body weight ([3]; 24 Hrs): 5.30 % dose/1% body weight
- Tibia, % dose/1% body weight ([3]; 24 Hrs): 2.10 % dose/1% body weight
